{"source": "paper PMC5066289", "about": "“Pharmacokinetics of anidulafungin during venovenous extracorporeal membrane oxygenation” (Critical Care, 2016)", "key": {"[1]": {"test": "Non-compartmental pharmacokinetics of anidulafungin in a critically ill patient on venovenous ECMO (plasma and urine, HPLC)", "format": "in vivo, human", "description": "Echinocandins are currently considered the first-line treatment for invasive candidiasis (IC) in the intensive care unit (ICU). However, extracorporeal membrane oxygenation (ECMO), a rescue therapy used in patients with severe acute respiratory distress syndrome (ARDS), could alter the pharmacokinetics of certain drugs. We prescribed anidulafungin for suspected IC in a patient with severe ARDS on ECMO and measured the plasma concentrations of the drug using high-performance liquid chromatography (HPLC).\n(§1) A patient was admitted to the ICU with septic shock secondary to peritonitis. The anti-infective treatment was based on surgical source control and broad spectrum antimicrobial therapy, including anidulafungin at usual doses. The patient developed severe ARDS. ECMO with Novalung iLA Activve™ was initiated, maintaining ultraprotective ventilation. Femoral (23 F) and jugular (19 F) cannulas (Novalung™, Germany) were inserted with 4.5 L/min blood flow and 4 L/min gas flow. Urine samples and pre-filter and post-filter blood samples were collected before starting the eight-dose anidulafungin infusion and 0.5, 1, 1.5, 2, 4, 6, 8, and 24 h after the infusion ended.\nA non-compartmental pharmacokinetic analysis was performed using Abbottbase Pharmacokinetic Systems™ (Abbott Laboratories, Illinois, USA). The maximum and trough plasma concentrations (Cmax and Cmin, respectively) were estimated directly from concentration-time data. The area under the plasma concentration-time curve over the 24-h dosing interval (AUC0–24) was estimated using the linear trapezoidal rule for both pre-filter and post-filter data. Clearance (CL) was estimated as dose/AUC0–24. The apparent volume of distribution at steady state (Vss) was estimated as the product of CL and mean residence time (MRT)."}, "[2]": {"test": "Tolerability of anidulafungin in the patient on ECMO", "format": "in vivo, human", "settings": "single critically ill patient on venovenous ECMO; usual doses", "description": "as §1"}}, "note": "“Also recorded” adds a separate entry of the source. Numbered stars: 1 amine (or outer) side, 2 acyl side, 3 side chain; on linkers, the order of the positions; unused ones are H or OH. Bridge positions count the residues as written; N and C are the ends. Square brackets hold non-standard residues; d marks the D form. Peptide text beside a SMILES is read from it. * marks the point of attachment. pTerphenylCO(4''-OnC5H11) = CCCCCOc1ccc(-c2ccc(-c3ccc(C(=O)*)cc3)cc2)cc1; Orn(4R-OH,5R-OH) = O=C([C@H](C[C@@H](O)[C@@H](O)N[*:3])N[*:1])[*:2]; hTyr(3S-OH,4S-OH) = N[C@H](C(=O)O)[C@H](O)[C@@H](O)c1ccc(O)cc1; Pro(3S-OH,4S-Me) = C[C@H]1CN[C@H](C(=O)O)[C@H]1O; Hyp = O=C(O)[C@@H]1C[C@@H](O)CN1"}
{"smiles": "CCCCCOc1ccc(-c2ccc(-c3ccc(C(=O)N[C@H]4C[C@@H](O)[C@@H](O)NC(=O)[C@@H]5[C@@H](O)[C@@H](C)CN5C(=O)[C@H]([C@@H](C)O)NC(=O)[C@H]([C@H](O)[C@@H](O)c5ccc(O)cc5)NC(=O)[C@@H]5C[C@@H](O)CN5C(=O)[C@H]([C@@H](C)O)NC4=O)cc3)cc2)cc1", "note": "[anidulafungin] ({pTerphenylCO(4''-OnC5H11)}-[Orn(4R-OH,5R-OH)]T[Hyp][hTyr(3S-OH,4S-OH)]T[Pro(3S-OH,4S-Me)]; lactam 1-C)", "values": [{"measurement": "Clearance (CL)", "setting": "[1]; single patient on venovenous ECMO, non-compartmental, dose/AUC0-24", "value": 0.933, "unit": "L/h"}, {"measurement": "Apparent volume of distribution at steady state (Vss)", "setting": "[1]; single patient on venovenous ECMO, non-compartmental, product of CL and MRT", "value": 18.9, "unit": "L"}, {"measurement": "Urine anidulafungin concentrations", "setting": "[1]; single patient on venovenous ECMO, urine samples over 24 h, HPLC, limit of detection 0.05 mg/L", "value": "negligible; also recorded: very low and close to the limit of detection"}, {"measurement": "Trough plasma concentration (Cmin)", "setting": "[1]; single patient on venovenous ECMO, usual doses, eighth dose, plasma, HPLC, estimated directly from concentration-time data", "value": 2190, "unit": "ng/mL"}, {"measurement": "Maximum plasma concentration (Cmax)", "setting": "[1]; single patient with severe ARDS on venovenous ECMO, anidulafungin infusion at usual doses, sampled around the eighth dose, plasma, HPLC, estimated directly from concentration-time data", "value": 13500, "unit": "ng/mL"}, {"measurement": "Tolerability / adverse effects", "setting": "[2]", "value": "well tolerated without relevant adverse effects"}]}
